According to US20100324058A1 (Obschestvo S Organichennoi Otvetsttvennoctiyou "Bionika", priority 2007, published 2010):
pKd: −log10 of the molar value.

Legend:
thrombin [1] = molecular target: T1, thrombin (Homo sapiens, UniProt P00734); details: literature, PDB complex; cited from earlier work
thrombin [2] = molecular target: T1, thrombin; assay: Effect of test compounds on thrombin activity: hydrolysis rate of chromogenic (Chromozim TH) or fluorogenic (BOC-Ala-Pro-Arg-AMC) substrate; type: biochemical; details: for inhibition at 0.025 µM: concentration of compound 25 nM; for inhibition at 0.05 µM: concentration of compound 50 nM
Excerpt: The effect of the synthesized substances on thrombin activity was studied by measuring the hydrolysis rate of specific low molecular weight substrates with thrombin in an aqueous buffering solution in the absence and presence of these compounds. One of these substrates was chromogenic substrate Chromozim TH (CTH): N-(p-Tosyl)-Gly-Pro-Arg-pNA [Sonder S A, Fenton J W 2nd. Thrombin Specificity with Tripeptide Chromogenic Substrates: Comparison of Human and Bovine Thrombins with and without Fibrinogen Clotting Activities. Clin. Chem., 1986, 32(6):934-937]. Another substrate that was used in a number of experiments was fluorogenic substrate BOC-Ala-Pro-Arg-AMC (S), wherein BOC is butoxycarbonyl residue, and AMC is 7-amino-4-methylcoumaryl [Kawabata S, Miura T, Morita T, Kato H, Fujikawa K, Ivanaga S, Takada K, Kimura T, Sakakibara S. Highly Sensitive peptide-4-methylcoumaryl-7-amide Substrates for Blood-Clotting Proteases and Trypsin. Eur. J. Biochem., 1988, 172(1):17-25].
The holes of a common 96-hole board were filled with a buffer containing 140 mM of NaCl, 20 mM of HEPES, and 0.1% polyethylene glycol (Mw=6,000), at pH=8.0. […] When a chromogenic substrate was used, accumulation of the colored reaction product—para-nitroaniline—was followed on a spectrophotometric Molecular Devices board reader (Thermomax, U.S.), measuring the increase in optical density on the 405 nm wavelength. […] The reaction kinetics was registered on a fluorometric Titertek Fluoroskan board reader (LabSystem, Finland).
The initial reaction rate was measured as the tangent of the kinetic curve inclination angle on a straight section (first 10 to 15 minutes of registration). Reaction rate without an inhibitor was a ssumed to be 100%. The mean arithmetic value of two independent measurements was used as the end result.

experimental animals = details: lethal dose of argothroban after clinical testing; cited from earlier work
[3] = cited from earlier work
[4] = concentration of compound 2.5 mcM
[5] = concentration of compound 0.5 mcM

N=c1ccc2cc3ccc(N)cc3[nH]c-2c1 [Proflavin]
pKd (thrombin [1]): ~5.00

Cc1cc(OCC[n+]2ccc(N)cc2)cc(OS(=O)(=O)c2ccccc2S(C)(=O)=O)c1 [HC_036s_IOC]
inhibition at 0.0025 µM (thrombin [2]; concentration of compound 2.5 nM): 29% | inhibition at 0.005 µM (thrombin [2]; concentration of compound 5 nM): 28% | inhibition at 0.025 µM (thrombin [2]): 79% | inhibition at 0.05 µM (thrombin [2]): 88% | Hydrolysis rate inhibition, % (thrombin [2]; [4]): 96%

CN(C)c1cc[n+](CCc2nc3cc(S(=O)(=O)N(C)c4ccccc4)ccc3n2C)cc1.[Cl-] [HC-021s-IOC]
Hydrolysis rate inhibition, % (thrombin [2]; concentration of compound 25 mcM): 5% | Hydrolysis rate inhibition, % (thrombin [2]; concentration of compound 100 mcM): 8% | Hydrolysis rate inhibition, % (thrombin [2]; concentration of compound 250 mcM): 4% | Hydrolysis rate inhibition, % (thrombin [2]; concentration of compound 500 mcM): 4%

CC1CNc2c(cccc2S(=O)(=O)N[C@@H](CCCNC(=N)N)C(=O)N2CC[C@@H](C)C[C@@H]2C(=O)O)C1 (some centres unmarked) [Argatroban]
LD50 (experimental animals): 475 mg/kg | T1/2 in plasma [3]: 36 min

Cc1cc(OCC[n+]2ccc(N)nc2)cc(OS(=O)(=O)c2ccccc2)c1.[I-] [HC_047s_IOC]
inhibition at 0.01 µM (thrombin [2]; concentration of compound 10 nM): 8% | inhibition at 0.025 µM (thrombin [2]): 10% | inhibition at 0.05 µM (thrombin [2]): 14% | Hydrolysis rate inhibition, % (thrombin [2]; concentration of compound 0.25 mcM): 36% | Hydrolysis rate inhibition, % (thrombin [2]; [5]): 49% | Hydrolysis rate inhibition, % (thrombin [2]; concentration of compound 1.85 mcM): 84% | Hydrolysis rate inhibition, % (thrombin [2]; [4]): 90%

Cc1cc(OCCC[n+]2ccc(N)cc2)cc(OS(=O)(=O)c2ccccc2F)c1.[I-] [HC_029s_IOC]
inhibition at 0.05 µM (thrombin [2]): 8% | inhibition at 0.1 µM (thrombin [2]; concentration of compound 100 nM): 14% | inhibition at 0.25 µM (thrombin [2]; concentration of compound 250 nM): 16% | Hydrolysis rate inhibition, % (thrombin [2]; [5]): 25% | Hydrolysis rate inhibition, % (thrombin [2]; concentration of compound 1 mcM): 54% | Hydrolysis rate inhibition, % (thrombin [2]; [4]): 75% | Hydrolysis rate inhibition, % (thrombin [2]; concentration of compound 5 mcM): 81%
